Results published in patent publication US20160287554A1, “Small Molecule Metal-Activated Protein Inhibition” (University of South Florida, priority 2015, published 2016).
“And” between values parts separate entries of the source, which are not always exact repeats. Equal entries are not always repeated. Blank lines part the entries; values can stand above or below the compound they belong to.

Target: 20S proteasome (Homo sapiens, UniProt P28074)
Test: 20S proteasome chymotrypsin-like activity assay, cleavage of suc-leu-leu-val-tyr-AMC (fluorescence), with or without copper chloride
Type: biochemical
Details: for inhibition against the proteasome: one-dose experiments, 10 μM compound in the presence of 1 μM copper
Excerpt: Pro-drug compounds, according to embodiments of the invention, include: 3,4-dihydroxybenzoic acid; galloflavin; 2-{[(carbamoylsulfanyl)acetyl]amino}benzoic acid; 6,7-Dihydroxycoumaranone; 3,6-bis(hydroxymethyl)pyridazin-4(1H)-one; and 4′,5,7-trihydroxyisoflavone, as shown in FIG. 1. These compounds, and analogs thereof, can act individually or can be used in combination. These compounds, and similar compounds, are capable of binding copper ions and facilitating inhibition of the proteasome. These compounds, and similar compounds, are safe and efficacious theranostics and/or drugs to detect and/or treat cancers. These compounds are from the NCI Diversity Set 3. Preliminary identification of these compounds as potential Cu-complexes with the proteasome was conducted using an in silico screening method, according to an embodiment of the invention, for example, with graphic representations of the calculated docking of the pro-drugs of FIG. 1 with copper ion and the proteasome, as shown in FIGS. 2-7. The modeling method indicates the potential of candidates as the pro-drugs, which are tested experimentally to confirm their efficiency using an in vitro experimental assay that tests for inhibition of the chymotrypsin-like activity of the 20S proteasome.
A Beckman Coulter Biomek FX^P Lab Automation Workstation was used for automating the assays. A Perkin Elmer EnVision 2102 multilabel plate reader was used to read the plates by fluorescence measurements. Assays were performed in 384 well black Nunc plates. Each compound (2 μl in DMSO), when tested without copper chloride was added to 28 μl of buffer (50 mM Tris at pH 7.6 and 37° C.), with 20 μM, 10 μl 20S proteasome and 10 μl of suc-leu-leu-val-tyr-AMC as the substrate (purchased from Boston Biochem), and the rate of substrate cleavage by 20S proteasome activity was determined. In the presence of copper, the buffer amount was decreased to 25 μl and 3 μl copper chloride was used for chelation with the compound for testing in the presence of copper. To allow chelation of copper to the compound, the plate was allowed to sit for 40 minutes with gentle shaking. The overall volume per well was held at 50 μL. The compounds and substrate were initially dissolved in 100% DMSO, but the final concentration of DMSO per well plate was reduced to less than 2% following subsequent dilutions. Plates were incubated at 37° C. for 2 hours. For dose response curves, the concentrations of copper chloride and a pro-drug compound, were varied to get optimal activity. The plates were read with 340 nm excitation and 460 nm emission using the plate reader. All liquid transfers to the plates were automated using the Biomek workstation.

[1] = NSC 37408 0.01 uM, CuCl2 0.01 uM
[2] = NSC 37408 0.01 uM, CuCl2 0.05 uM
[3] = NSC 37408 0.01 uM, CuCl2 0.1 uM
[4] = NSC 37408 0.01 uM, CuCl2 0.5 uM
[5] = NSC 37408 0.02 uM, CuCl2 0.01 uM
[6] = NSC 37408 0.02 uM, CuCl2 0.05 uM
[7] = NSC 37408 0.02 uM, CuCl2 0.1 uM
[8] = NSC 37408 0.02 uM, CuCl2 0.5 uM
[9] = NSC 37408 0.2 uM, CuCl2 0.01 uM
[10] = NSC 37408 0.2 uM, CuCl2 0.05 uM
[11] = CuCl2 0.01 uM alone (NSC 37408 0 uM)
[12] = CuCl2 0.05 uM alone (NSC 37408 0 uM)
[13] = CuCl2 0.1 uM alone (NSC 37408 0 uM)
[14] = CuCl2 0.5 uM alone (NSC 37408 0 uM)
[15] = CuCl2 1 uM alone (NSC 37408 0 uM)
[16] = CuCl2 10 uM alone (NSC 37408 0 uM)

Compound: O=C(O)c1ccc(O)c(O)c1 [compound 16631, 3,4-dihydroxybenzoic acid]
inhibition against the proteasome: superior inhibition

Compound: NC(=O)SCC(=O)Nc1ccccc1C(=O)O [compound 13345, 2-{[(carbamoylsulfanyl)acetyl]amino}benzoic acid]
inhibition against the proteasome: superior inhibition

Compound: [Cl][Cu][Cl] [CuCl2, copper chloride, reference compound]
% Activity [11]: 116.1267% and 79.27% | Average % inhibition [11]: 2.302% | % Activity [12]: 92.35% and 88.54% | Average % inhibition [12]: 9.555% | % Activity [13]: 82.9012% and 74.33% | Average % inhibition [13]: 21.39% | % Activity [14]: 50.13% and 54.8853% | Average % inhibition [14]: 47.49% | % Activity [15]: 65.79% and 56.9% | Average % inhibition [15]: 38.65% | % Activity [16]: 21.19% and 16.25% | Average % inhibition [16]: 81.28% | EC50 (copper chloride alone, dose response (FIG. 11), read-out: EC50 of inhibitory effect on the % activity of the proteasome): 686 nM | inhibitory activity of copper absent the pro-drug (sub-micromolar copper concentration (FIG. 13)): no significant inhibitory activity

More lines, main results first:

% Activity (NSC 37408 0.01 uM, CuCl2 0 uM): 112.6213% and 99.65% | Average % inhibition (NSC 37408 0.01 uM, CuCl2 0 uM): −6.135% | % Activity [1]: 90.87% and 88.81% | Average % inhibition [1]: 10.1605% | % Activity [2]: 86.05% and 85.2009% | Average % inhibition [2]: 14.38% | % Activity [3]: 72.84% and 76.28% | Average % inhibition [3]: 25.44% | % Activity [4]: 54.66% and 61.76% | Average % inhibition [4]: 41.79% | % Activity (NSC 37408 0.01 uM, CuCl2 1 uM): 44.58% and 55.7695% | Average % inhibition (NSC 37408 0.01 uM, CuCl2 1 uM): 49.82% | % Activity (NSC 37408 0.01 uM, CuCl2 10 uM): 19.49% and 20.5% | Average % inhibition (NSC 37408 0.01 uM, CuCl2 10 uM): 80.0042% | % Activity (NSC 37408 0.02 uM, CuCl2 0 uM): 96.06% and 94.02% | Average % inhibition (NSC 37408 0.02 uM, CuCl2 0 uM): 4.963% | % Activity [5]: 88.1% and 90.5198% | Average % inhibition [5]: 10.69% | % Activity [6]: 68.1% and 55.31% | Average % inhibition [6]: 38.29% | % Activity [7]: 65.88% and 61.48% | Average % inhibition [7]: 36.32% | % Activity [8]: 51.0064% and 59.2161% | Average % inhibition [8]: 44.89% | % Activity (NSC 37408 0.02 uM, CuCl2 1 uM): 56.05% and 43.65% | Average % inhibition (NSC 37408 0.02 uM, CuCl2 1 uM): 50.1481% | % Activity (NSC 37408 0.02 uM, CuCl2 10 uM): 17.83% and 17.5873% | Average % inhibition (NSC 37408 0.02 uM, CuCl2 10 uM): 82.29% | % Activity (NSC 37408 0.2 uM, CuCl2 0 uM): 105.3933% and 82.75% | Average % inhibition (NSC 37408 0.2 uM, CuCl2 0 uM): 5.927% | % Activity [9]: 94.36% and 76.52% | Average % inhibition [9]: 14.5582% | % Activity [10]: 85.2901% and 82.94% | Average % inhibition [10]: 15.89% | % Activity (NSC 37408 0.2 uM, CuCl2 0.1 uM): 73.85% and 60.05% | Average % inhibition (NSC 37408 0.2 uM, CuCl2 0.1 uM): 33.05% | % Activity (NSC 37408 0.2 uM, CuCl2 0.5 uM): 64.18% and 61.99% | Average % inhibition (NSC 37408 0.2 uM, CuCl2 0.5 uM): 36.91% | % Activity (NSC 37408 0.2 uM, CuCl2 1 uM): 56.85% and 54.95% | Average % inhibition (NSC 37408 0.2 uM, CuCl2 1 uM): 44.1% | % Activity (NSC 37408 0.2 uM, CuCl2 10 uM): 19.46% and 18.13% | Average % inhibition (NSC 37408 0.2 uM, CuCl2 10 uM): 81.2011% | % Activity (NSC 37408 1 uM, CuCl2 0 uM): 103.1804% and 90.54% | Average % inhibition (NSC 37408 1 uM, CuCl2 0 uM): 3.138% | % Activity (NSC 37408 1 uM, CuCl2 0.01 uM): 72.59% and 75.01% | Average % inhibition (NSC 37408 1 uM, CuCl2 0.01 uM): 26.2% | % Activity (NSC 37408 1 uM, CuCl2 0.05 uM): 66.45% and 67.81% | Average % inhibition (NSC 37408 1 uM, CuCl2 0.05 uM): 32.87% | % Activity (NSC 37408 1 uM, CuCl2 0.1 uM): 65.45% and 59.72% | Average % inhibition (NSC 37408 1 uM, CuCl2 0.1 uM): 37.4167% | % Activity (NSC 37408 1 uM, CuCl2 0.5 uM): 56.12% and 54.11% | Average % inhibition (NSC 37408 1 uM, CuCl2 0.5 uM): 44.88% | % Activity (NSC 37408 1 uM, CuCl2 1 uM): 57.76% and 41.6248% | Average % inhibition (NSC 37408 1 uM, CuCl2 1 uM): 50.31% | % Activity (NSC 37408 1 uM, CuCl2 10 uM): 14.11% and 16.23% | Average % inhibition (NSC 37408 1 uM, CuCl2 10 uM): 84.83% | % Activity (NSC 37408 2 uM, CuCl2 0 uM): 97.24% and 74.12% | Average % inhibition (NSC 37408 2 uM, CuCl2 0 uM): 14.32% | % Activity (NSC 37408 2 uM, CuCl2 0.01 uM): 87.55% and 75.89% | Average % inhibition (NSC 37408 2 uM, CuCl2 0.01 uM): 18.28% | % Activity (NSC 37408 2 uM, CuCl2 0.05 uM): 61.5% and 61.91% | Average % inhibition (NSC 37408 2 uM, CuCl2 0.05 uM): 38.3% | % Activity (NSC 37408 2 uM, CuCl2 0.1 uM): 62.98% and 55.45% | Average % inhibition (NSC 37408 2 uM, CuCl2 0.1 uM): 40.79% | % Activity (NSC 37408 2 uM, CuCl2 0.5 uM): 50.79% and 47.45% | Average % inhibition (NSC 37408 2 uM, CuCl2 0.5 uM): 50.8784% | % Activity (NSC 37408 2 uM, CuCl2 1 uM): 41.16% and 35.42% | Average % inhibition (NSC 37408 2 uM, CuCl2 1 uM): 61.71% | % Activity (NSC 37408 2 uM, CuCl2 10 uM): 15.32% and 15.04% | Average % inhibition (NSC 37408 2 uM, CuCl2 10 uM): 84.82% | % Activity (NSC 37408 20 uM, CuCl2 0 uM): 99.79% and 91.1158% | Average % inhibition (NSC 37408 20 uM, CuCl2 0 uM): 4.548% | % Activity (NSC 37408 20 uM, CuCl2 0.01 uM): 71.91% and 89.68% | Average % inhibition (NSC 37408 20 uM, CuCl2 0.01 uM): 19.21% | % Activity (NSC 37408 20 uM, CuCl2 0.05 uM): 54.92% and 76.06% | Average % inhibition (NSC 37408 20 uM, CuCl2 0.05 uM): 34.51% | % Activity (NSC 37408 20 uM, CuCl2 0.1 uM): 49.04% and 30.46% | Average % inhibition (NSC 37408 20 uM, CuCl2 0.1 uM): 60.25% | % Activity (NSC 37408 20 uM, CuCl2 0.5 uM): 36.6% and 25.36% | Average % inhibition (NSC 37408 20 uM, CuCl2 0.5 uM): 69.02% | % Activity (NSC 37408 20 uM, CuCl2 1 uM): 25.4789% and 22.77% | Average % inhibition (NSC 37408 20 uM, CuCl2 1 uM): 75.88% | % Activity (NSC 37408 20 uM, CuCl2 10 uM): 7.426% and 7.089% | Average % inhibition (NSC 37408 20 uM, CuCl2 10 uM): 92.74% | IC50 (dose-response assay, in presence of 100 nM copper (FIG. 13)): 3000 nM | inhibition against the proteasome: superior inhibition | inhibition in the absence of copper ion (various concentrations, no copper (FIG. 10)): little if any inhibition
Compound: 6,7-dihydroxycoumaranone [NSC 37408]
capacity to inhibit the proteasome compared with copper chloride alone (first round of screening (Table 1), compound complexed with copper): better capacity to inhibit the proteasome than copper chloride alone | percent inhibition in the presence of copper versus compound alone (sub-micromolar copper, triplicate (FIG. 13)): dramatic improvement of percent inhibition

inhibition against the proteasome: superior inhibition
Compound: O=c1c(-c2ccc(O)cc2)coc2cc(O)cc(O)c12 [compound 36586, 4′,5,7-trihydroxyisoflavone]

inhibition against the proteasome: superior inhibition
Compound: O=c1oc2c(cc1O)oc(=O)c1cc(O)c(O)c(O)c12 [compound 107022, galloflavin]

inhibition against the proteasome: superior inhibition
Compound: O=c1cc(CO)[nH]nc1CO [compound 166900, 3,6-bis(hydroxymethyl)pyridazin-4(1H)-one]
